Experimental data from patent publication US20040058952A1, “Urease inhibitors” (Otsuka Pharmaceutical Co., Ltd., priority 2000, published 2004).

Assays:
[1] = biological target: T1, jack bean urease (Canavalia ensiformis, UniProt P07374); assay: Urease activity inhibition test (13C-urea, 13C-NMR), jack bean urease; format: biochemical
T1 construct: purchased
Method: Using ^13C-urea as a substrate, the amount of urea, which is eliminated due to the urease enzyme reaction, was measured with a lapse of time by means of ^13C-NMR. On the basis of an elimination rate (M/sec) of ^13C-urea in the absence of the urease inhibitor sample, the case where the elimination rate in the presence of the sample is reduced to half was calculated as IC50 of the sample. […]
Each sample was inserted into a probe and the enzyme reaction was conducted at the reaction temperature (temperature of the probe) of 20° C. and the measurement was conducted every 20 seconds after 1 to 4 minutes have passed since the beginning of the reaction, while the measurement was conducted every one minute after 4 or more minutes have passed, using a ^13C-NMR apparatus. Consequently, an elimination rate (M/sec) of a signal (165 ppm) of ^13C-urea as the substrate was determined. […]
Using the respective compounds obtained in Reference Examples 2 to 5 as the test compound, the same test (using the jack bean urease) was repeated and IC50 of each test compounds was determined, thus calculating a relative urease inhibitory activity value relative to a standard (1) for the same value of BIT. […]

[2] = biological target: Helicobacter pylori urease (Helicobacter pylori, UniProt P69996); assay: Urease activity inhibition test (13C-urea, 13C-NMR), Helicobacter pylori urease; format: biochemical
Helicobacter pylori urease, sequence (P14916 whole entry): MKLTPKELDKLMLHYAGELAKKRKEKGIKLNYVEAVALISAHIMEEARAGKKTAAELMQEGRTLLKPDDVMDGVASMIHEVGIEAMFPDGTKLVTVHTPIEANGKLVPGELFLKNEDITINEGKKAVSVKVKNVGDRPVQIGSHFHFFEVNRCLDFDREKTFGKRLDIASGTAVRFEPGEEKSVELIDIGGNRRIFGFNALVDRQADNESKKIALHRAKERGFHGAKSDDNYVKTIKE
Helicobacter pylori urease, sequence (P69996 whole entry): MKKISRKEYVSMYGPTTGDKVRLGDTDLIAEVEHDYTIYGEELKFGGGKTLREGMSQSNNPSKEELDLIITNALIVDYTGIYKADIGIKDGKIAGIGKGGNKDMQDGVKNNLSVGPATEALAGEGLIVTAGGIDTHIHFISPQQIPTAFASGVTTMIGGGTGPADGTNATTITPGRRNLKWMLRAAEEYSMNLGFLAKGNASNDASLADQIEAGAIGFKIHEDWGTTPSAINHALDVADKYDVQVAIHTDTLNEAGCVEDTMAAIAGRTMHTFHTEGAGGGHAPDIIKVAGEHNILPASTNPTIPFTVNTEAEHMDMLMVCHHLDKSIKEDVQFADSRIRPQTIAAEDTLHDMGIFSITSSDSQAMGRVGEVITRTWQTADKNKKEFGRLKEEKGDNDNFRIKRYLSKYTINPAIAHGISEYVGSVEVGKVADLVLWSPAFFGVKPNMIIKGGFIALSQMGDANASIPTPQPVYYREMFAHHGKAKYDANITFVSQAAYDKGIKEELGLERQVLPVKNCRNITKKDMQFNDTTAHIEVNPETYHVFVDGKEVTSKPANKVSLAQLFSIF
Method: Using ^13C-urea as a substrate, the amount of urea, which is eliminated due to the urease enzyme reaction, was measured with a lapse of time by means of ^13C-NMR. On the basis of an elimination rate (M/sec) of ^13C-urea in the absence of the urease inhibitor sample, the case where the elimination rate in the presence of the sample is reduced to half was calculated as IC50 of the sample.
(Preparation of sample) In a NMR tube having a diameter of 5 mm, Helicobacter pylori urease (manufactured by OTSUKA PHARMACEUTICAL CO., 1.6 units) dissolved in 500 μof a mixed solvent (pH 7) of 400 μl of 0.1M phosphate buffer (pH 7) and 100 μl of DMSO was added and each test compound (urease inhibitor sample) dissolved in 100 μl of ethanol was added, followed by standing at 20° C. for 30 minutes and further standing on an ice bath for 10 minutes. […]
Each sample was inserted into a probe and the enzyme reaction was conducted at the reaction temperature (temperature of the probe) of 20° C. and the measurement was conducted every 20 seconds after 1 to 4 minutes have passed since the beginning of the reaction, while the measurement was conducted every one minute after 4 or more minutes have passed, using a ^13C-NMR apparatus. Consequently, an elimination rate (M/sec) of a signal (165 ppm) of ^13C-urea as the substrate was determined.

[3] = tested on: Helicobacter pylori ATCC 43504; assay: Anti-Helicobacter pylori activity test (dilution method); format: cell-based; settings: H. pylori ATCC 43504, 3 days culture, OD660nm; compared with metronidazole (MN), FIG. 3
Method: An anti-Helicobacter pylori activity test of the compound as an active ingredient of the present invention was conducted in the following procedure using a dilution method. Helicobacter pylori ATCC 43504 strains were innoculated in a medium in petri dish (Brucella agar (BECTON […]), containing 7% FBS) and then cultured in a mixed carbonic acid gas-nitrogen gas culture medium (10% CO2, 5% O2, 85% N2, 37° C.) for 2 days. The strains were recovered, cultured similarly in a liquid medium using a Brucella broth (BECTON […]) for one day and then diluted with the same medium to control […] to 0.1. The test compound was dissolved in 50% ethanol-saline to prepare a 1 mg/ml solution and the solution was 1- to 2048-fold diluted by 12 steps with the same medium to prepare dilution series. In each well of cell culture plate (20 μl/well), each step wisely diluted solution (20 μl) of the test compound was charged and a Brucella medium (containing 7% FBS) (160 μl) was added, and then a pylori strain solution (20 μl) was finally added.

T1 sequence (P07374 whole entry, looked up): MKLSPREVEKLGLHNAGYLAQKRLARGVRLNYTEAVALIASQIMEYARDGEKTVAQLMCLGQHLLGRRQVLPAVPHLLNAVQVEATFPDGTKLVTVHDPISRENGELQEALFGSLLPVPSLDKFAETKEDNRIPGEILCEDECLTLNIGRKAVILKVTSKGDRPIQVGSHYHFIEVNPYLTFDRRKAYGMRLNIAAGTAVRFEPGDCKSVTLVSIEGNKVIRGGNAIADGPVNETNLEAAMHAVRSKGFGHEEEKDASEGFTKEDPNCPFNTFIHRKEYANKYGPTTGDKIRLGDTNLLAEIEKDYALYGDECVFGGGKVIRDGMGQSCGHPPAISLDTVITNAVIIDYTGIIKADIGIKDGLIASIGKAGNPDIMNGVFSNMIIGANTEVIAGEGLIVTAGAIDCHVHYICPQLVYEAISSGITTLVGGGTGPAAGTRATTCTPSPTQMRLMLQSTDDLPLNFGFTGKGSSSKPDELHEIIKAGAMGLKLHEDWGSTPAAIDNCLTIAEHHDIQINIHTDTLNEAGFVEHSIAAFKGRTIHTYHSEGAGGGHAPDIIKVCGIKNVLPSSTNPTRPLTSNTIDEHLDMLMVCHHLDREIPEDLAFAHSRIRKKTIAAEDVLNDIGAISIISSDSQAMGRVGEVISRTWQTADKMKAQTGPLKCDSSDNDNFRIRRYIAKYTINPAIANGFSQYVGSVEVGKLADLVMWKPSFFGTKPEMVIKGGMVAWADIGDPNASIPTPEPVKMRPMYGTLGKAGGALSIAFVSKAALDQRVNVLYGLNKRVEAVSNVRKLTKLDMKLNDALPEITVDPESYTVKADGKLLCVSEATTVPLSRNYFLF

Compound: O=c1[nH]sc2ccccc12 [BIT, 1,2-benzoisothiazol-3 (2H)-one]
- IC50 [1]: 132 µM
- IC50 [2]: 55 µM
- anti-Helicobacter pylori activity (eradication rate) [3]: stronger than that of MN
